In PubChem BioAssay (NCI):
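Dose response: 5 concentrations. Exposure: 48 h. Format: 96-well plates. Endpoint: linear interpolation; highest concentration if not reached. GI50 = concentration required for 50% inhibition of growth. At the TGI there is no net growth.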

What was measured:
Experiment in all cases: NCI tumour cell line growth inhibition, 48 h
DLD-1 colon = tested on: DLD-1 colon
DMS 114 small cell lung = tested on: DMS 114 small cell lung
HOP-18 NSCLC = tested on: HOP-18 NSCLC
KM20L2 colon = tested on: KM20L2 colon
M19-MEL melanoma = tested on: M19-MEL melanoma
P388 leukemia = tested on: P388 leukemia
P388/ADR leukemia = tested on: P388/ADR leukemia
SN12K1 renal = tested on: SN12K1 renal
SNB-78 CNS = tested on: SNB-78 CNS
XF 498 CNS = tested on: XF 498 CNS
LXFL 529 NSCLC = tested on: LXFL 529 NSCLC
RXF-631 renal = tested on: RXF-631 renal

## CCC1(c2ccc(N)cc2)CCC(=O)NC1=O (configuration not stated)
DLD-1 colon
  TGI: > 5000 µM
DMS 114 small cell lung
  TGI: > 4320 µM
HOP-18 NSCLC
  TGI: > 4910 µM
KM20L2 colon
  TGI: > 5000 µM
M19-MEL melanoma
  TGI: > 4740 µM
P388 leukemia
  TGI: > 5000 µM
P388/ADR leukemia
  TGI: > 2810 µM
SN12K1 renal
  TGI: > 5000 µM
SNB-78 CNS
  TGI: 4970 µM
XF 498 CNS
  TGI: 4260 µM

## CC[PH+](CC)CC.CC[PH+](CC)CC.[Au]
DLD-1 colon
  GI50: 5.52 µM
  TGI: 18.9 µM
HOP-18 NSCLC
  GI50: 8 µM
  TGI: 22.1 µM
KM20L2 colon
  GI50: 17.3 µM
  TGI: 33.3 µM
LXFL 529 NSCLC
  GI50: 2.31 µM
  TGI: 6.33 µM
M19-MEL melanoma
  GI50: 4.06 µM
  TGI: 31.9 µM
SNB-78 CNS
  GI50: 6.82 µM
  TGI: 53.1 µM
XF 498 CNS
  GI50: 11 µM
  TGI: 26.4 µM

## O=C(O)CN(c1ccc(F)cc1)S(=O)(=O)c1ccccc1
DLD-1 colon
  TGI: > 100 µM
HOP-18 NSCLC
  TGI: > 100 µM
KM20L2 colon
  TGI: > 100 µM
LXFL 529 NSCLC
  TGI: > 100 µM
M19-MEL melanoma
  TGI: > 100 µM
RXF-631 renal
  TGI: > 100 µM
XF 498 CNS
  TGI: > 100 µM

## O=C1C(=O)N(c2ccc(Cl)cc2)C(=O)C(=Nc2cccc3c(=O)[nH][nH]c(=O)c23)C1c1nc2ccccc2o1 (configuration not stated)
DLD-1 colon
  TGI: > 100 µM
HOP-18 NSCLC
  TGI: > 100 µM
KM20L2 colon
  TGI: > 100 µM
LXFL 529 NSCLC
  TGI: > 100 µM
M19-MEL melanoma
  TGI: > 100 µM
RXF-631 renal
  TGI: > 100 µM
SNB-78 CNS
  TGI: > 100 µM

## COc1cc(O)c2c(c1)C(=O)C1=C(C2=O)C(O)C[C@@](C)(O)C1 (some centres not stated)
DLD-1 colon
  TGI: 2.28 µM
DMS 114 small cell lung
  TGI: 3.26 µM
KM20L2 colon
  TGI: 11.6 µM
LXFL 529 NSCLC
  TGI: 2.1 µM
M19-MEL melanoma
  TGI: 1.66 µM
SNB-78 CNS
  TGI: 4.67 µM
XF 498 CNS
  TGI: 3.46 µM

## O=C(CSSCC(=O)Nc1ccc(Br)cc1)Nc1ccc(Br)cc1
DLD-1 colon
  TGI: 35.9 µM
DMS 114 small cell lung
  TGI: 28.2 µM
KM20L2 colon
  TGI: 29.2 µM
LXFL 529 NSCLC
  TGI: 31.2 µM
M19-MEL melanoma
  TGI: 34.2 µM
SNB-78 CNS
  TGI: 32.5 µM
XF 498 CNS
  TGI: 34.5 µM
